Reference: patent US6586441B2, “Adenosine receptor ligands and their use in the treatment of disease” (Hoffman-La Roche Inc., priority 2000, dated 2003)
Like-named read-outs stand apart in the source and are kept apart here.

Key:
[1] = target: T1, human adenosine A1 receptor (Homo sapiens, UniProt P30542); assay: Human adenosine A1 receptor [3H]-DPCPX binding assay; settings: membranes of CHO cells, read-out: hA1 (pKi) (converted)
T1 construct: expressed in transfected cells; host or cells: CHO cells, semliki forest virus expression system; membrane preparation
T1 sequence (P30542 1-326): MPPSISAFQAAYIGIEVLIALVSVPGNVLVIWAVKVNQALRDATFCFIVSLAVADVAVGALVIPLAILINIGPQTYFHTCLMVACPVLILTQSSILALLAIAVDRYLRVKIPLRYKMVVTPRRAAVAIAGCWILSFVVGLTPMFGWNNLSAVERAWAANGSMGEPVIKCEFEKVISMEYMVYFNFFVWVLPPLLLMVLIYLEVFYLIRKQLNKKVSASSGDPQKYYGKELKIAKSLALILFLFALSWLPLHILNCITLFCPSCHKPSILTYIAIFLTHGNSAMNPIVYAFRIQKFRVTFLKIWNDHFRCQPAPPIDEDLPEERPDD
Description: The gene encoding human adenosine A1 receptor was recombinantly introduced and expressed in chinese hamster ovary (CHO) cells using the semliki forest virus expression system. Cells were harvested, washed twice by centrifugation, homogenised and again washed by centrifugation. The final washed membrane pellet was suspended in a Tris (50 mM) buffer containing 120 mM NaCl, 5 mM KCl, 2 mM CaCl2 and 10 mM MgCl2 (pH 7.4) (buffer A). The [^3H]-DPCPX (([propyl-3H]8-cyclopentyl-1,3-dipropyxanthine); 0.6 nM) binding assay was carried out in 96-well plates in the presence of 2.5 μg of membrane protein, 0.5 mg of Ysi-poly-1-lysine SPA beads and 0. I U adenosine deaminase in a final volume of 200 μl of buffer A. Non-specific binding was defined using xanthine amine congener (XAC; 2 μM). Compounds were tested at 10 concentrations from 10 μM-0.3 nM. All assays were conducted in duplicate and repeated at least two times. Assay plates were incubated for 1 hour at room temperature before centrifugation and then bound ligand determined using a Packard Topcount scintillation counter. IC50 values were calculated using a non-linear curve fitting program and Ki values calculated using the Cheng-Prussoff equation.

[2] = target: T2, human adenosine A2A receptor (Homo sapiens, UniProt P29274); assay: Human adenosine A2A receptor [3H]-SCH-58261 binding assay
T2 construct: expressed in transfected cells; host or cells: CHO cells, semliki forest virus expression system; membrane preparation
In short: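 Membranes from CHO cells expressing the human receptor (Semliki Forest virus system) were incubated with 1 nM [3H]-SCH-58261 and adenosine deaminase. The buffer was Tris pH 7.4 with NaCl, KCl, CaCl2 and MgCl2, and the read-out was SPA after 1 h at room temperature. Non-specific binding was defined with XAC; compounds were run at 10 concentrations (10 μM–0.3 nM), and IC50 values were converted to Ki by Cheng-Prusoff.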

[3] = target: T3, human adenosine A3 receptor (Homo sapiens, UniProt P0DMS8); assay: Human adenosine A3 receptor [125I]-AB-MECA binding assay; settings: membranes of CHO cells, read-out: hA3 (pKi) (converted)
T3 construct: expressed in transfected cells; host or cells: CHO cells, semliki forest virus expression system; membrane preparation
T3 sequence (P0DMS8 1-318): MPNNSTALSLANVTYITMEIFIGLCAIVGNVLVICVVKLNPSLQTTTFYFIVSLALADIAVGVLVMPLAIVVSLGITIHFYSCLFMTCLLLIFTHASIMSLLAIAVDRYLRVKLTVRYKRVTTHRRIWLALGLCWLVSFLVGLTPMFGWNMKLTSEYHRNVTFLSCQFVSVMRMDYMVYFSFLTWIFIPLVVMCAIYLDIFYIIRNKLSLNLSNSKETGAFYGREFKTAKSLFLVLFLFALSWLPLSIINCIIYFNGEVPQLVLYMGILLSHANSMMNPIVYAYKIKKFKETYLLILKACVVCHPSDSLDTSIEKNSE
Description: The gene encoding human adenosine A3 receptor was recombinantly introduced and expressed in chinese hamster ovary (CHO) cells using the semliki forest virus expression system. Cells were harvested, washed twice by centrifugation, homogenised and again washed by centrifugation. The final washed membrane pellet was suspended in a Tris (50 mM) buffer containing 120 mM NaCl, 5 mM KCl, 2 mM CaCl2 and 10 mM MgCl2 (pH 7.4) (buffer A). The [^125I]-AB-MECA ([N(6)-(4-amino-3-iodobenzyl)-5′-N-methylcarbamoyl-adenosine]; 0.05 nM) binding assay was carried out in 96-well plates in the presence of 20 μg of membrane protein and 0.1 U adenosine deaminase in a final volume of 200 μl of buffer A. Non-specific binding was defined using xanthine amine congener (XAC; 2 μM). Compounds were tested at 10 concentrations from 10 μM-0.3 nM. All assays were conducted in duplicate and repeated at least two times. Assay plates were incubated for 1 hour at room temperature before filtration through Whatman Unifilter GF/C 96-well filter plates (preincubated with 0.3% polyethyleneimine). Filters were washed 3 times with 0.3 ml of cold (4° C.) Tris (50 mM)-Nacl (120 mM) buffer (pH 7.4). Microscint 40 scintillation fluid (50 μl) was added to each well and the wells sealed. After gentle shaking for 20 min, plates were counted on a Packard Topcount scintillation counter. IC50 values were calculated using a non-linear curve fitting program and Ki values calculated using the Cheng-Prussoff equation.

[4] = human A2A receptor, selectivity table
[5] = human A2a receptor, membranes of CHO cells, [3H]-SCH-58261, read-out: pKi (affinity to the human A2a receptor) (converted)
[6] = human A2A receptor, selectivity table, read-out: hA2 (pKi) (converted)

T2 sequence (P29274 whole entry): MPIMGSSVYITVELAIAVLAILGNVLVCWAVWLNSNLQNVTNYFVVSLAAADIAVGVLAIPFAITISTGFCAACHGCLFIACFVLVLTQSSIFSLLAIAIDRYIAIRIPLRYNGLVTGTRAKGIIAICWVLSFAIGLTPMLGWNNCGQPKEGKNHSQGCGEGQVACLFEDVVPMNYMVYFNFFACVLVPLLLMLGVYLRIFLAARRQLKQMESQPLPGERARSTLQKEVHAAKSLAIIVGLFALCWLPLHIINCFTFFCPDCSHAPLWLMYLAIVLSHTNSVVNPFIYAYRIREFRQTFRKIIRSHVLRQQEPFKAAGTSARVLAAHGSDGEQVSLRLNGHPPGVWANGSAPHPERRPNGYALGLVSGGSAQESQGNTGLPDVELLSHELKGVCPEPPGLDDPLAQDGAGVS

| Ki [1] [nM] | hA2 (pKi) [2, 4] | Ki [2, 5] [nM] | Ki [3] [µM] | Ki [2, 6] [nM] | SMILES |
| --- | --- | --- | --- | --- | --- |
| 646 | 8.40 | 3.98 | 2.14 |  | CCc1ccc(CNc2nc(N)nc(-c3ccco3)c2C#N)cc1 [Example 375, 2-Amino-4-(4-ethyl-benzylamino)-6-furan-2-yl-pyrimidine-5-carbonitrile] |
| 6310 | 8.38 | 4.17 |  |  | N#Cc1c(NCc2ccc(C(F)(F)F)cc2)nc(N)nc1-c1ccco1 [Example 345, 2-Amino-4-furan-2-yl-6-(4-trifluoromethyl-benzylamino)-pyrimidine-5-carbonitrile] |
| 2880 | 8.26 | 5.5 | 3.98 |  | N#Cc1c(NCc2ccc(Br)cc2)nc(N)nc1-c1ccco1 [Example 325, 2-Amino-4-(4-bromo-benzylamino)-6-furan-2-yl-pyrimidine-5-carbonitrile] |
| 4470 | 8.44 | 3.63 |  |  | N#Cc1c(NCc2ncc(C(F)(F)F)cc2Cl)nc(N)nc1-c1ccco1 [Example 400, 2-Amino-4-[(3-chloro-5-trifluoromethyl-pyridin-2-yl-methyl)-amino]-6-furan-2-yl-pyrimidine-5-carbonitrile] |
| 389 | 8.34 | 4.57 | 2.04 |  | N#Cc1c(/C=C/c2ccccc2)nc(N)nc1-c1ccco1 [Example 149, (E)-2-Amino-4-furan-2-yl-6-styryl-pyrimidine-5-carbonitrile] |
| 851 | 8.27 | 5.37 | 7.24 |  | N#Cc1c(NCCNc2ccc(Cl)cc2)nc(N)nc1-c1ccco1 [Example 318, 2-Amino-4-[2-(4-chloro-phenylamino)-ethylamino]-6-furan-2-yl-pyrimidine-5-carbonitrile] |
| 372 | 8.59 | 2.57 | 0.151 |  | Cc1ccccc1CNc1nc(N)nc(-c2ccco2)c1C#N [Example 288, 2-Amino-4-furan-2-yl-6-(2-methyl-benzylamino)-pyrimidine-5-carbonitrile] |
| 2040 | 8.17 | 6.76 |  |  | Cc1ccc(CNc2nc(N)nc(-c3ccco3)c2C#N)cc1 [Example 290, 2-Amino-4-furan-2-yl-6-(4-methyl-benzylamino)-pyrimidine-5-carbonitrile] |
| 692 | 8.33 | 4.68 | 6.03 |  | N#Cc1c(NCCNc2ccccc2)nc(N)nc1-c1ccco1 [Example 132, 2-Amino-4-furan-2-yl-6-(2-phenylamino-ethylamino)-pyrimidine-5-carbonitrile] |
| 316 | 8.60 | 2.51 | 8.71 |  | N#Cc1c(OCc2ccc3ccccc3c2)nc(N)nc1-c1ccco1 [Example 303, 2-Amino-4-furan-2-yl-6-(naphthalen-2-ylmethoxy)-pyrimidine-5-carbonitrile] |
| 6920 | 8.23 | 5.89 |  |  | N#Cc1c(NCc2ccc3ccccc3c2)nc(N)nc1-c1ccco1 [Example 298, 2-Amino-4-furan-2-yl-6-[(naphthalen-2-ylmethyl)-amino]-pyrimidine-5-carbonitrile] |
| 2510 |  |  | 1.26 | 36.3 | N#Cc1cnc(N)nc1-c1cccs1 [Example 26, 2-Amino-4-thiophen-2-yl-2-pyrimidine-5-carbonitrile] |
| 1660 | 8.33 | 4.68 | 8.91 |  | N#Cc1c(NCc2ccccc2)nc(N)nc1-c1ccco1 [Example 42, 2-Amino-4-benzylamino-6-furan-2-yl-pyrimidine-5-carbonitrile] |
| 1320 |  |  | 1.95 | 57.5 | COc1cc(-c2nc(N)nc(SC)c2C#N)cc(OC)c1OC [Example 15, 2-Amino-4-methylsulfanyl-6-(3,4,5-trimethoxy-phenyl)-pyrimidine-5-carbonitrile] |
